Measured values: patent US12208130B2, “Treatment of women affected with polycystic ovary syndrome” (INSTITUT NATIONAL DE LA SANTE ET DE LA RECHERCHE MEDICALE …, priority 2017, dated 2025)
Where a SMILES comes first, the peptide text is derived from it. [ ]: non-standard residue; d: D form. dPhe(4-Cl) = N[C@H](Cc1ccc(Cl)cc1)C(=O)O; d2Nal = N[C@H](Cc1ccc2ccccc2c1)C(=O)O; dCit = NC(=O)NCCC[C@@H](N)C(=O)O; d3Pal = N[C@H](Cc1cccnc1)C(=O)O

Legend:
pregnant mice = assay: LH, T, E2 and P measurement in pregnant mice at E19.5; format: in vivo, mouse
Description: PAMH+GnRH antag. (FIG. 3D) Schematic representation of tail-tip blood sampling in adult diestrus female mice (3-4 months old). (FIG. 3E) Tail blood was collected every 10 min for 2 h and LH measured from 10 a.m-12 p.m in adult (P60) diestrus females (Control, n=8; PAMH, n=10; PAMH+GnRH antag, n=9; One-way ANOVA and Tukey's multiple comparison post hoc test, F(2,24)=57.06, *P<0.05, ***P<0.0001). Bars from left to right: Control, PAMH, PAMH+GnRH antag. (FIGS. 2F-1, 2F-2, 2F-3) Representative graphs for LH pulsatility over 2-hr in one female adult (P60) mouse of each treatment. Asterisks in (FIG. 3F) indicate the number of LH pulses/2-hr. (FIG. 3G) Mean circulating testosterone and LH levels were analyzed in pregnant PBS-treated (n=4) and AMH-treated (n=4) dams at embryonic day (E) 19.5 of gestation. […] Values are expressed as relative to the mean of each treatment. All values are expressed as mean±s.e.m. […]
For the analysis of circulating LH and T levels, animals were decapitated and trunk blood from adult (P60) animals and P0 pups (1-2 hrs after birth) were collected in sterile Eppendorf tubes and left on ice until centrifugation. […] LH levels were determined by a sandwich ELISA, as described previously (Vidal et al., 2012, PloS one, Vol. 7: e39001), using the mouse LH-RP reference provided by A. F. Parlow (National Hormone and Pituitary Program, Torrance, CA). […]

P0 pups = assay: LH and T measurement in P0 mice; format: in vivo, mouse; settings: prenatal GnRH antagonist administration with AMH
Description: FIGS. 4A-4C-2. Prenatal AMH treatment increases perinatal T levels in females and masculinizes their brain. (FIG. 4A) Plasma T and LH levels were measured in pups 2 hours after birth (males, n=5; control females, n=5; PAMH females, n=4; PAMH females+GnRH antag, n=6). (FIG. 4B) TH immunoreactive (-ir) neurons in the AVPV were quantified in these animal groups (n=3 per sex and treatment). The number of AVPV TH-ir neurons are represented as the mean±s.e.m. (One-way ANOVA and Tukey's multiple comparisons post-hoc test, F(2,6)=231.1, ***P<0.0001). In FIG. 4B: left bar: male; middle bar: control female; right bar: PAMH female. (FIGS. 4C-1, 4C-2)
For the analysis of circulating LH and T levels, animals were decapitated and trunk blood from adult (P60) animals and P0 pups (1-2 hrs after birth) were collected in sterile Eppendorf tubes and left on ice until centrifugation. Plasma was collected and stored at −80° C. until use. LH levels were determined by a sandwich ELISA, as described previously (Vidal et al., 2012, PloS one, Vol. 7: e39001), using the mouse LH-RP reference provided by A. F. Parlow (National Hormone and Pituitary Program, Torrance, CA). Plasma T levels were analyzed using a commercial ELISA (Demeditec Diagnostics, GmnH, DEV9911) (Moore et al., 2015, Proc Natl Acad Sci USA, Vol. 112: 596-601) according to the manufacturers' instructions. […]

CC(=O)N[C@H](Cc1ccc2ccccc2c1)C(=O)N[C@H](Cc1ccc(Cl)cc1)C(=O)N[C@H](Cc1cccnc1)C(=O)N[C@@H](CO)C(=O)N[C@@H](Cc1ccc(O)cc1)C(=O)N[C@H](CCCNC(N)=O)C(=O)N[C@@H](CC(C)C)C(=O)N[C@@H](CCCNC(=N)N)C(=O)N1CCC[C@H]1C(=O)N[C@H](C)C(N)=O [Cetrorelix acetate, Ac-D-2Nal-D-Phe(4-Cl)-D-3Pal-Ser-Tyr-D-Cit-Leu-Arg-Pro-D-Ala-NH2] (Ac-[d2Nal][dPhe(4-Cl)][d3Pal]SY[dCit]LRP[dA]-NH2)
circulating T in dams (pregnant mice; dams i.p. AMH + GnRH antag E16.5-E18.5): very low T levels
AMH-induced increase of LH in pregnant mice (pregnant mice; dams i.p. AMH + GnRH antagonist E16.5-E18.5): prevented
neonatal T and LH surges of PAMH female pups (P0 pups): corrected
